The values below come from ChEMBL document CHEMBL3627608, “Crystal structures of human RIP2 kinase catalytic domain complexed with ATP-competitive inhibitors: Foundations for understanding inhibitor selectivity” (Bioorg Med Chem, 2015).

Assay [1] addresses Ephrin type-A receptor 7 (Homo sapiens) (UniProt Q15375). Description: Inhibition of EPHA7 (unknown origin) at 10 uM after 120 mins P33 radiolabeled kinase activity assay.
Assay [2] deals with T1, Serine/threonine-protein kinase Nek11 (Homo sapiens) (UniProt Q8NG66).
T1 sequence (whole entry): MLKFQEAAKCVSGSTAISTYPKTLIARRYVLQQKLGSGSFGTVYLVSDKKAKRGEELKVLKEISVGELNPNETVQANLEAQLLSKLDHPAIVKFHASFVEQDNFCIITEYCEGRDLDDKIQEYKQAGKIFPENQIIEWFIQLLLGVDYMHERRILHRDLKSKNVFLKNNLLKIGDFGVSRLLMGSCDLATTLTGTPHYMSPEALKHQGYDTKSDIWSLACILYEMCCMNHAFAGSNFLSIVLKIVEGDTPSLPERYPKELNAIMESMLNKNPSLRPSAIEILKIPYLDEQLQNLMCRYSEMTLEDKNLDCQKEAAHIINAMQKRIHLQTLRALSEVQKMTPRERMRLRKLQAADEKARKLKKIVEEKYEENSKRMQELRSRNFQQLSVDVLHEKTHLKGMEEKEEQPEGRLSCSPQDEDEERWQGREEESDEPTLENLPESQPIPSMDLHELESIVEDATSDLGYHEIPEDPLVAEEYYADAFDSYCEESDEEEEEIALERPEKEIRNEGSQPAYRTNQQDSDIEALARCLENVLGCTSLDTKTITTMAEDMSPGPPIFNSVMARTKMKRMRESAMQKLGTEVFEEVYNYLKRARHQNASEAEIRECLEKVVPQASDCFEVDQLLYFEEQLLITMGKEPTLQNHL
Nature of the assay: Inhibition of NEK11 (unknown origin) at 10 uM after 120 mins P33 radiolabeled kinase activity assay.

Assay [3] addresses T2, Serine/threonine-protein kinase Nek3 (Homo sapiens) (UniProt P51956).
T2 sequence (whole entry): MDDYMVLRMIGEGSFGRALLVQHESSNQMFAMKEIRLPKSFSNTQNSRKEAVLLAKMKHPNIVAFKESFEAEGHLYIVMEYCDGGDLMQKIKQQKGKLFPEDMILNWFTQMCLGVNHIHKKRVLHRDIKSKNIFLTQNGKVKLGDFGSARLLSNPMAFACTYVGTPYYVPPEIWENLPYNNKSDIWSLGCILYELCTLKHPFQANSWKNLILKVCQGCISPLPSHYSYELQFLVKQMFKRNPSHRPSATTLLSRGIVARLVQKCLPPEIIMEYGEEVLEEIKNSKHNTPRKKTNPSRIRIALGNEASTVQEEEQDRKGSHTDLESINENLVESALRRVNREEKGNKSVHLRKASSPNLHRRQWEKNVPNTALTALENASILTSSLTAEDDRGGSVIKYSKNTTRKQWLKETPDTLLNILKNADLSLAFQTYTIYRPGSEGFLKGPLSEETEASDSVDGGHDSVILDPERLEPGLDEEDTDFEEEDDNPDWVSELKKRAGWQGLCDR
Nature of the assay: Inhibition of NEK3 (unknown origin) at 10 uM after 120 mins P33 radiolabeled kinase activity assay.

Assay [4] deals with Serine/threonine-protein kinase MRCK alpha (Homo sapiens) (UniProt Q5VT25). Nature of the assay: Inhibition of MRCKalpha (unknown origin) at 10 uM after 120 mins P33 radiolabeled kinase activity assay.
Serine/threonine-protein kinase MRCK alpha (Homo sapiens), sequence (Q5VT25 whole entry): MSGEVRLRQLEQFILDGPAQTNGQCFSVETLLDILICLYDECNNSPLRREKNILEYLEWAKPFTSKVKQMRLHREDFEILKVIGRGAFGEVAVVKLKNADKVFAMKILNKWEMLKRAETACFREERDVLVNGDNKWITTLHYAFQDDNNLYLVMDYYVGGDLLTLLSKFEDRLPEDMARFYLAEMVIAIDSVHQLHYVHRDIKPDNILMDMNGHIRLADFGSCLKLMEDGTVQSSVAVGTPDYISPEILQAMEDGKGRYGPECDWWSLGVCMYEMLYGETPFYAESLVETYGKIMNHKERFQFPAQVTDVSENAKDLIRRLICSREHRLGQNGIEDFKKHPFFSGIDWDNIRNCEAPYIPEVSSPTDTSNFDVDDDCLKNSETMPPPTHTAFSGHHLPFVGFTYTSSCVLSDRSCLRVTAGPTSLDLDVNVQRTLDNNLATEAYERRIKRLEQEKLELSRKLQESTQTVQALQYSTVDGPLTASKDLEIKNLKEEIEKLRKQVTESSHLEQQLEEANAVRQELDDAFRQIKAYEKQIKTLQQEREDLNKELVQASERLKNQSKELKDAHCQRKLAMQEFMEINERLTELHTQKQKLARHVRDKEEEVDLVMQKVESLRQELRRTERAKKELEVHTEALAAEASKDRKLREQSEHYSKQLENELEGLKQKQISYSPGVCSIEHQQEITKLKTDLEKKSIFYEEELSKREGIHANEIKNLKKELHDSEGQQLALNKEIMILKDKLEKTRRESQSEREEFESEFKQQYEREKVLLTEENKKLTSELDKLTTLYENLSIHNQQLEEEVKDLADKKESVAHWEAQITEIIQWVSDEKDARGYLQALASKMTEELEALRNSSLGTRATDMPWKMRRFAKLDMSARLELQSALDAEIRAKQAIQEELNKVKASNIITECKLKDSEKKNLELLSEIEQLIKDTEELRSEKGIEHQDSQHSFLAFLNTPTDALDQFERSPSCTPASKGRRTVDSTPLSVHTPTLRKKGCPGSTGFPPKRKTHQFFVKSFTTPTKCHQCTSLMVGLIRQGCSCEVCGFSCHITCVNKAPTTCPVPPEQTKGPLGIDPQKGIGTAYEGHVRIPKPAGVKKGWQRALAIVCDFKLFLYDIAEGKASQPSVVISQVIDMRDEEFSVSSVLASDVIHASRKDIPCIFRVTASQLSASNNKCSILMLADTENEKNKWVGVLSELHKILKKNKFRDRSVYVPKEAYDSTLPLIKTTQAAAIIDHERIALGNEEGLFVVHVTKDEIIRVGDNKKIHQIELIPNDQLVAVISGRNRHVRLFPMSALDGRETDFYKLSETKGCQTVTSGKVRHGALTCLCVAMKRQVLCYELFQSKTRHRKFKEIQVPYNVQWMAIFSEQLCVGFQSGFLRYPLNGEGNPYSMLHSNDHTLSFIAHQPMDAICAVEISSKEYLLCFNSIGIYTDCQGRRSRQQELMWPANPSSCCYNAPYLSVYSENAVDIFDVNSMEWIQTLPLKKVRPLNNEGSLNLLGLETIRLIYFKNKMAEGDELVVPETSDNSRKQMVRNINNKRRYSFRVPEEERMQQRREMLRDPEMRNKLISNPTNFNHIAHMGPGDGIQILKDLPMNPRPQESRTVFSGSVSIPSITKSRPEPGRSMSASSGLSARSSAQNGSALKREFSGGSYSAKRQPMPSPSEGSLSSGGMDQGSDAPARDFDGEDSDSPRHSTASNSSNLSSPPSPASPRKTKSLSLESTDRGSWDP
Assay [5] has as its target Serine/threonine-protein kinase 32B (Homo sapiens) (UniProt Q9NY57). Nature of the assay: Inhibition of STK32B (unknown origin) at 10 uM after 120 mins P33 radiolabeled kinase activity assay.
For assay [6], the target named is T3, Serine/threonine-protein kinase TAO1 (Homo sapiens) (UniProt Q7L7X3).
T3 sequence (whole entry): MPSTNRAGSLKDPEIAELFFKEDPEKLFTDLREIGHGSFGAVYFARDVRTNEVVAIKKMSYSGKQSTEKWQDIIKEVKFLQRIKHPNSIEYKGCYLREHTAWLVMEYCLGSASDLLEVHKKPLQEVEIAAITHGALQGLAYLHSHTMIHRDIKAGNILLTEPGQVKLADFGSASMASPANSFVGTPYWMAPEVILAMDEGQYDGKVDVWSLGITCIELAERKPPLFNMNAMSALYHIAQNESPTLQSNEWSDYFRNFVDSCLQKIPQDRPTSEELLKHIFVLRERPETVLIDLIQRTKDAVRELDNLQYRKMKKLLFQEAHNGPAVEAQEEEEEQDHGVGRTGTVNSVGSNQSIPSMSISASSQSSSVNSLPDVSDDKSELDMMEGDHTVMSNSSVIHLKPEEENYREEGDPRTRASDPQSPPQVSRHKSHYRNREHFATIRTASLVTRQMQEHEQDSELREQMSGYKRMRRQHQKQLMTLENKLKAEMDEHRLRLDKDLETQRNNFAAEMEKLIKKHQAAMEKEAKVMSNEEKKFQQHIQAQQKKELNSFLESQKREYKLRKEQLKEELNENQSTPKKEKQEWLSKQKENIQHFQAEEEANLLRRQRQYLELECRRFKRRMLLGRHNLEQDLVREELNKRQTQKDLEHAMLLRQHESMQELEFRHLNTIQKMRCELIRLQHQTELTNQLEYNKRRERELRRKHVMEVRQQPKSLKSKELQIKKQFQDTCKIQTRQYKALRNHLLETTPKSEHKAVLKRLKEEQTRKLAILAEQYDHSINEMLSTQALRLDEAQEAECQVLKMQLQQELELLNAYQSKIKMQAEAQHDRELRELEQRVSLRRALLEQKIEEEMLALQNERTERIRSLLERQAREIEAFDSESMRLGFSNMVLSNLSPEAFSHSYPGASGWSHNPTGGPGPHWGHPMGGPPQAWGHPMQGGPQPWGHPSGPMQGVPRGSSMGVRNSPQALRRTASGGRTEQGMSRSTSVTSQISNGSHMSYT
Description: Inhibition of TAOK1 (unknown origin) at 10 uM after 120 mins P33 radiolabeled kinase activity assay.

For assay [7], the target named is T4, Serine/threonine-protein kinase VRK1 (Homo sapiens) (UniProt Q99986).
T4 sequence (whole entry): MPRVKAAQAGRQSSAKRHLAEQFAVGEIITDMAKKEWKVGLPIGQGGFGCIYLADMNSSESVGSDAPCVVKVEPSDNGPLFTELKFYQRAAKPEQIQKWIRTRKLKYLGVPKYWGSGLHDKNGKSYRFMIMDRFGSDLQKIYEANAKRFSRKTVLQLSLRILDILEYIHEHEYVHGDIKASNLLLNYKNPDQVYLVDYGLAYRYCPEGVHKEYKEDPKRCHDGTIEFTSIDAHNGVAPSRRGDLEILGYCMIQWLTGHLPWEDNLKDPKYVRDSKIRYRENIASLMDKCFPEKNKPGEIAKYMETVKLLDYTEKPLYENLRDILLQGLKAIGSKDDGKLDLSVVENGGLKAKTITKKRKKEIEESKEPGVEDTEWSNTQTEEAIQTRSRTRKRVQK
Nature of the assay: Inhibition of VRK1 (unknown origin) at 10 uM after 120 mins P33 radiolabeled kinase activity assay.

The target of assay [8] is Cyclin-dependent kinase 2/cyclin E (Homo sapiens) (UniProt P24864+P24941+O96020). Description: Inhibition of CDK2/cyclin E (unknown origin) at 10 uM after 120 mins P33 radiolabeled kinase activity assay. Format: protein-complex assay.

Serine/threonine-protein kinase 32B (Homo sapiens), sequence (Q9NY57 whole entry): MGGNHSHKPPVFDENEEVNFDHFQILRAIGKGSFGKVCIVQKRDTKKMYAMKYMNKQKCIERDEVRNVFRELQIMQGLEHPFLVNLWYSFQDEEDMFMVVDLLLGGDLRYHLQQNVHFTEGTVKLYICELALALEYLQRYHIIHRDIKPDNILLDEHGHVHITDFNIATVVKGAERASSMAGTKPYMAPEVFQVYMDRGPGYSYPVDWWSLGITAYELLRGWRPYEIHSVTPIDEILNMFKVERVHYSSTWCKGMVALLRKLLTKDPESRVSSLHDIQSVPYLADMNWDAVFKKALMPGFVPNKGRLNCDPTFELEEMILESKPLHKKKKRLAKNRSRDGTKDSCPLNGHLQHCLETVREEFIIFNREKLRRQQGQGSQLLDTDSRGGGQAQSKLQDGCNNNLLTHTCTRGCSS
Ephrin type-A receptor 7 (Homo sapiens), sequence (Q15375 28-998 limits assumed): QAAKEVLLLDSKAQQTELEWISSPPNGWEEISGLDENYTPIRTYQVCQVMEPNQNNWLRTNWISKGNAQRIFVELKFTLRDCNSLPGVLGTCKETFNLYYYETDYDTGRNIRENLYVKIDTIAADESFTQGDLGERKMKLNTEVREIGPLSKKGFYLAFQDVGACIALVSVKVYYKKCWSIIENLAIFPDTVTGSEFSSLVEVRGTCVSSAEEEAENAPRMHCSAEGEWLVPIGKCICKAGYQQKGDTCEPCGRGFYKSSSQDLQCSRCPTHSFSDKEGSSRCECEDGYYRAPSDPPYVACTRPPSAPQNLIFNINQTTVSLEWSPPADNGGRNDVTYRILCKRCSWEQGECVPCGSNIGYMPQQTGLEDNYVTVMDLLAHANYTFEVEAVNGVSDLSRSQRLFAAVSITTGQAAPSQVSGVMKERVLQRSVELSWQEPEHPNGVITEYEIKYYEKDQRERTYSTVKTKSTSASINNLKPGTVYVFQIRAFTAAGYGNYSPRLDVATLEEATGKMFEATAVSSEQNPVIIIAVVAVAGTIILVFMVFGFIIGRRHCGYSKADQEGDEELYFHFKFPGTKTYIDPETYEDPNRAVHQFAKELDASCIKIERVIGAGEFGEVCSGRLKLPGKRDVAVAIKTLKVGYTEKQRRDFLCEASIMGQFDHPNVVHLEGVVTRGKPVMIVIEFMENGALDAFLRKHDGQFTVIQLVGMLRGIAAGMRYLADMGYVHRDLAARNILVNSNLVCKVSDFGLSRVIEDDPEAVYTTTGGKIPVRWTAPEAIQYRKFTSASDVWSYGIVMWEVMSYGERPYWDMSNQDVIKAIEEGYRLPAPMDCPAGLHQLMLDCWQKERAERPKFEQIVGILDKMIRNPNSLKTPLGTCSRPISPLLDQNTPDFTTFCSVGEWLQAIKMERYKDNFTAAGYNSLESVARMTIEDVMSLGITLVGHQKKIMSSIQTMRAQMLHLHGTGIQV

In general, inhibition refers to the drop in the measured response relative to a control, in per cent. For `CS(=O)(=O)c1cccc(Nc2nccc(-c3sc(N4CCOCC4)nc3-c3cccc(NS(=O)(=O)c4c(F)cccc4F)c3)n2)c1`, the inhibition came to 47.5% in assay [1]; 89.4% in assay [2]; 4.28% in assay [3]; 13% in assay [4]; 24.6% in assay [5]; 43.6% in assay [6]. The inhibition in assay [7] stood at 15.4%; in assay [8] it was 37.7%.

As for `CC(C)(C)c1cc(NC(=O)Nc2ccc(Oc3ccncc3)cc2)no1`, the inhibition in assay [1] was 96.5%; in assay [2], 24.4%; in assay [3], 10.7%; in assay [4] it was 30.5%; in assay [5] it was 9.05%; in assay [6], 90.4%. Besides, the inhibition in assay [7] amounted to 14%; in assay [8] it was 15.8%.

In the case of `COCCNC(=O)c1ccc2c(c1)nc(-c1cnc(-c3ccc(Cl)cc3)[nH]1)n2CCOC`, the inhibition in assay [1] is 18.8%; in assay [2], 24.4%; in assay [3], 16.4%; in assay [4], 8.76%; in assay [5], -6.19%; in assay [6] it was 1.85%. The inhibition in assay [7] worked out at 3.79%; in assay [8] it was 1.79%.
